Patent US20140243286A1, “BROMODOMAIN LIGANDS CAPABLE OF DIMERIZING IN AN AQUEOUS SOLUTION, AND METHODS OF USING SAME” (Coferon, Inc., priority 2011, published 2014)
pIC50: −log10 of the molar value. Like-named read-outs stand apart in the source and are kept apart here.

Tests used:
BRD2 = BRD2 (Homo sapiens, UniProt P25440); assay: Fluorescence anisotropy (FA) binding assay, BRD2
Description: (§1) Fluorescence Anisotropy (FA) Binding Assays.
(§2) FA assays were performed as described in Chung et al., J. Med Chem., 2011 54(11): 3827-38 except that protein concentrations were 125 nM and plates were read on a Spectramax M5 plate reader.

BRD3 = BRD3 (Homo sapiens, UniProt Q15059); assay: Fluorescence anisotropy (FA) binding assay, BRD3
Description: as §1, §2

BRD4 = BRD4 (Homo sapiens, UniProt O60885); assay: Fluorescence anisotropy (FA) binding assay, BRD4
Description: as §1, §2

[1] = BRD2, protein 125 nM, read-out: IC50 range (FA assay) BRD2, BRD-E monomers
[2] = BRD3, protein 125 nM, read-out: IC50 range (FA assay) BRD3, BRD-E monomers
[3] = BRD4, protein 125 nM, read-out: IC50 range (FA assay) BRD4, BRD-E monomers
[4] = BRD2, protein 125 nM, read-out: IC50 range (FA assay) BRD2, BRD-N monomers
[5] = BRD3, protein 125 nM, read-out: IC50 range (FA assay) BRD3, BRD-N monomers
[6] = BRD4, protein 125 nM, read-out: IC50 range (FA assay) BRD4, BRD-N monomers

Sequence of BRD3 (Q15059 whole entry): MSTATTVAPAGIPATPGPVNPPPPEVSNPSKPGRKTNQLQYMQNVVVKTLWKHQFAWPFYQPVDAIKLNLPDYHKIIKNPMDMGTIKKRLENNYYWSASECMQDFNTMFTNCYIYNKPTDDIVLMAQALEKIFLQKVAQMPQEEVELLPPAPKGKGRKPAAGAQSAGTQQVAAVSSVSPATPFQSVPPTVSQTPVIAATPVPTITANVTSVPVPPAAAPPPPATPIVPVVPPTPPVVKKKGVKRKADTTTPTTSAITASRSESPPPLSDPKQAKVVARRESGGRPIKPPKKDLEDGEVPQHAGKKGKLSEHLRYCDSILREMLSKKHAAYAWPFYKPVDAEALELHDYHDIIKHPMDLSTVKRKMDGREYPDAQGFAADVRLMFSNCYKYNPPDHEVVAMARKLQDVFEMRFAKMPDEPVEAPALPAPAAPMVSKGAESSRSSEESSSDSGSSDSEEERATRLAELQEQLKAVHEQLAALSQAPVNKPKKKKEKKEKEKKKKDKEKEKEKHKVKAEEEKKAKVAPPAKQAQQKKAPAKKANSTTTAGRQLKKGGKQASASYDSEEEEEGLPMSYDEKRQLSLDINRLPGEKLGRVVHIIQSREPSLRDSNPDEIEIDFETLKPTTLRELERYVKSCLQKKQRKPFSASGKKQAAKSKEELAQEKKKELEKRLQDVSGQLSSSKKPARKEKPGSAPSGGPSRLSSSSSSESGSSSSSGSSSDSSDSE
Sequence of BRD2 (P25440 whole entry): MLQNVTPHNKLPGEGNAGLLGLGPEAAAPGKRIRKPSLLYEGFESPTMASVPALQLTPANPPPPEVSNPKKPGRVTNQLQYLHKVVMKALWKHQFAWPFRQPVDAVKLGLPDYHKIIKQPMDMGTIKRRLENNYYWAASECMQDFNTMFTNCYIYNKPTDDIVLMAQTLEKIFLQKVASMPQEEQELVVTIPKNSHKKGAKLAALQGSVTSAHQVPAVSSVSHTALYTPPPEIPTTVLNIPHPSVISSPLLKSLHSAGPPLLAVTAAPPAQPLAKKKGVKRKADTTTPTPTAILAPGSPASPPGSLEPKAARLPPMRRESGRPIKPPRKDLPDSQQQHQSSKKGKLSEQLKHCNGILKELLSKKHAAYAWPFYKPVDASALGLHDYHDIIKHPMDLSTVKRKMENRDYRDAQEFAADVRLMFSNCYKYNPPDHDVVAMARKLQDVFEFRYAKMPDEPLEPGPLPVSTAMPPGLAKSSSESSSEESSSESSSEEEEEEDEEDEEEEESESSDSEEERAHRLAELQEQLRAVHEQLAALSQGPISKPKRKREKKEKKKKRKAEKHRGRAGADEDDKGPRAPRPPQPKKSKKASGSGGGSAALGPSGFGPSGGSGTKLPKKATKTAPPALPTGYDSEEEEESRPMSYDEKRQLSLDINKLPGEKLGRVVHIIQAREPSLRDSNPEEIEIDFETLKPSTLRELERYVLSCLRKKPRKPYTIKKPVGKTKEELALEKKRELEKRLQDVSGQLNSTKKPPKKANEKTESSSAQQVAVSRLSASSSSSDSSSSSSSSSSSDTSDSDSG

`COc1ccc2c(c1)C(c1ccc(Cl)cc1)=N[C@@H](CC(=O)NCc1ccc(B(O)O)cc1)c1nnc(C)n1-2` [BRD-E-09, (S)-(4-((2-(6-(4-chlorophenyl)-8-methoxy-1-methyl-4H-benzo[f][1,2,4]triazolo[4,3-a][1,4]diazepin-4-yl)acetamido)methyl)phenyl)boronic acid] showed a pIC50 (BRD2; [1]) of 6.00 to 7.30, a pIC50 (BRD3; [2]) of 6.00 to 7.30 and a pIC50 (BRD4; [3]) of 6.00 to 7.30.

With `COc1ccc2c(c1)C(c1ccc(Cl)cc1)=N[C@@H](CC(=O)NCc1cccc(B(O)O)c1)c1nnc(C)n1-2` [BRD-E-10, (S)-(3-((2-(6-(4-chlorophenyl)-8-methoxy-1-methyl-4H-benzo[f][1,2,4]triazolo[4,3-a][1,4]diazepin-4-yl)acetamido)methyl)phenyl)boronic acid] the pIC50 (BRD2) was 6.00 to 7.30, the pIC50 (BRD3) was 6.00 to 7.30 and the pIC50 (BRD4) was 6.00 to 7.30.

`COc1ccc2c(c1)C(c1ccc(Cl)cc1)=N[C@@H](CC(=O)NCCc1ccc(B(O)O)cc1)c1nnc(C)n1-2` [BRD-E-13, (S)-(4-(2-(2-(6-(4-chlorophenyl)-8-methoxy-1-methyl-4H-benzo[f][1,2,4]triazolo[4,3-a][1,4]diazepin-4-yl)acetamido)ethyl)phenyl)boronic acid] was tested, and the pIC50 (BRD2; [1]) was 4.52 to 6.00, the pIC50 (BRD3; [2]) was 6.00 to 7.30 and the pIC50 (BRD4; [3]) was 6.00 to 7.30.

Compound `COc1ccc2c(c1)C(c1ccc(Cl)cc1)=N[C@@H](CC(=O)NCCc1cccc(B(O)O)c1)c1nnc(C)n1-2` [BRD-E-14, (S)-(3-(2-(2-(6-(4-chlorophenyl)-8-methoxy-1-methyl-4H-benzo[f][1,2,4]triazolo[4,3-a][1,4]diazepin-4-yl)acetamido)ethyl)phenyl)boronic acid] has a pIC50 (BRD2; [1]) of 6.00 to 7.30, a pIC50 (BRD3; [2]) of 6.00 to 7.30 and a pIC50 (BRD4; [3]) of 6.00 to 7.30.

`CCNC(=O)C[C@@H]1N=C(c2ccc(Cl)cc2)c2cc(OCC(=O)Nc3cccc(B(O)O)c3)ccc2-n2c(C)nnc21` [BRD-E-15, (S)-(3-(2-((6-(4-chlorophenyl)-4-(2-(ethylamino)-2-oxoethyl)-1-methyl-4H-benzo[f][1,2,4]triazolo[4,3-a][1,4]diazepin-8-yl)oxy)acetamido)phenyl)boronic acid] showed a pIC50 (BRD2; [1]) of 4.52 to 6.00, a pIC50 (BRD3; [2]) of 6.00 to 7.30 and a pIC50 (BRD4; [3]) of 6.00 to 7.30.

`CCNC(=O)C[C@@H]1N=C(c2ccc(Cl)cc2)c2cc(OCC(=O)Nc3ccc(B(O)O)cc3)ccc2-n2c(C)nnc21` [BRD-E-16, (S)-(4-(2-((6-(4-chlorophenyl)-4-(2-(ethylamino)-2-oxoethyl)-1-methyl-4H-benzo[f][1,2,4]triazolo[4,3-a][1,4]diazepin-8-yl)oxy)acetamido)phenyl)boronic acid] gave a pIC50 (BRD2; [1]) of 4.52 to 6.00, a pIC50 (BRD3; [2]) of 6.00 to 7.30 and a pIC50 (BRD4; [3]) of 6.00 to 7.30.

Compound `CCNC(=O)C[C@@H]1N=C(c2ccc(Cl)cc2)c2cc(OCCCC(=O)Nc3cccc(B(O)O)c3)ccc2-n2c(C)nnc21` [BRD-E-19] has a pIC50 (BRD2; [1]) of 6.00 to 7.30, a pIC50 (BRD3; [2]) of 6.00 to 7.30 and a pIC50 (BRD4; [3]) of 6.00 to 7.30.

Work on `CCNC(=O)C[C@@H]1N=C(c2ccc(Cl)cc2)c2cc(OCCCCC(=O)Nc3cccc(B(O)O)c3)ccc2-n2c(C)nnc21` [BRD-E-20, (S)-(3-(5-((6-(4-chlorophenyl)-4-(2-(ethylamino)-2-oxoethyl)-1-methyl-4H-benzo[f][1,2,4]triazolo[4,3-a][1,4]diazepin-8-yl)oxy)pentanamido)phenyl)boronic acid] yielded a pIC50 (BRD2; [1]) of 6.00 to 7.30, a pIC50 (BRD3; [2]) of 6.00 to 7.30 and a pIC50 (BRD4; [3]) of 6.00 to 7.30.

With `CCNC(=O)C[C@@H]1N=C(c2ccc(Cl)cc2)c2cc(OCCNC(=O)c3cccc(B(O)O)c3)ccc2-n2c(C)nnc21` [BRD-E-21, (S)-(3-((2-((6-(4-chlorophenyl)-4-(2-(ethylamino)-2-oxoethyl)-1-methyl-4H-benzo[f][1,2,4]triazolo[4,3-a]diazepin-8-yl)oxy)ethyl)carbamoyl)phenyl)boronic acid] the pIC50 (BRD2; [1]) was 6.00 to 7.30, the pIC50 (BRD3; [2]) was 6.00 to 7.30 and the pIC50 (BRD4; [3]) was 6.00 to 7.30.

`CCNC(=O)C[C@@H]1N=C(c2ccc(Cl)cc2)c2cc(OCCNC(=O)c3ccc(B(O)O)cc3)ccc2-n2c(C)nnc21` [BRD-E-22, (S)-(4-((2-((6-(4-chlorophenyl)-4-(2-(ethylamino)-2-oxoethyl)-1-methyl-4H-benzo[f][1,2,4]triazolo[4,3-a]diazepin-8-yl)oxy)ethyl)carbamoyl)phenyl)boronic acid] showed a pIC50 (BRD2; [1]) of 6.00 to 7.30, a pIC50 (BRD3; [2]) of 6.00 to 7.30 and a pIC50 (BRD4; [3]) of 6.00 to 7.30.

With `CCNC(=O)C[C@@H]1N=C(c2ccc(Cl)cc2)c2cc(OCCCNC(=O)c3cccc(B(O)O)c3)ccc2-n2c(C)nnc21` [BRD-E-23, (S)-(3-((3-((6-(4-chlorophenyl)-4-(2-(ethylamino)-2-oxoethyl)-1-methyl-4H-benzo[f][1,2,4]triazolo[4,3-a][1,4]diazepin-8-yl)oxy)propyl)carbamoyl)phenyl)boronic acid] the pIC50 (BRD2; [1]) was 4.52 to 6.00, the pIC50 (BRD3; [2]) was 4.52 to 6.00 and the pIC50 (BRD4; [3]) was 4.52 to 6.00.

With `CCNC(=O)C[C@@H]1N=C(c2ccc(Cl)cc2)c2cc(OCCCNC(=O)c3ccc(B(O)O)cc3)ccc2-n2c(C)nnc21` [BRD-E-24, (S)-(4-((3-((6-(4-chlorophenyl)-4-(2-(ethylamino)-2-oxoethyl)-1-methyl-4H-benzo[f][1,2,4]triazolo[4,3-a][1,4]diazepin-8-yl)oxy)propyl)carbamoyl)phenyl)-boronic acid] the pIC50 (BRD2; [1]) was 4.52 to 6.00, the pIC50 (BRD3; [2]) was 6.00 to 7.30 and the pIC50 (BRD4; [3]) was 6.00 to 7.30.

For `CCNC(=O)C[C@@H]1N=C(c2ccc(Cl)cc2)c2cc(OCCCCNC(=O)c3cccc(B(O)O)c3)ccc2-n2c(C)nnc21` [BRD-E-25, (S)-(3-((4-((6-(4-chlorophenyl)-4-(2-(ethylamino)-2-oxoethyl)-1-methyl-4H-benzo[f][1,2,4]triazolo[4,3-a][1,4]diazepin-8-yl)oxy)butyl)carbamoyl)phenyl)boronic acid], the pIC50 (BRD2; [1]) was 4.52 to 6.00, the pIC50 (BRD3; [2]) was 4.52 to 6.00 and the pIC50 (BRD4; [3]) was 4.52 to 6.00.

In the case of `CCNC(=O)C[C@@H]1N=C(c2ccc(Cl)cc2)c2cc(OCCCCNC(=O)c3ccc(B(O)O)cc3)ccc2-n2c(C)nnc21` [BRD-E-26, (S)-(4-((4-((6-(4-chlorophenyl)-4-(2-(ethylamino)-2-oxoethyl)-1-methyl-4H-benzo[f][1,2,4]triazolo[4,3-a][1,4]diazepin-8-yl)oxy)butyl)carbamoyl)phenyl)boronic acid], the pIC50 (BRD2; [1]) was 6.00 to 7.30, the pIC50 (BRD3; [2]) was 6.00 to 7.30 and the pIC50 (BRD4; [3]) was 6.00 to 7.30.

`COc1ccc2c(c1)C(c1ccc(Cl)cc1)=N[C@@H](CC(=O)NCCNC(=O)/C=C/c1ccc(B(O)O)cc1)c1nnc(C)n1-2` [BRD-E-29, (4-((E)-3-((2-(2-((4S)-6-(4-chlorophenyl)-8-methoxy-1-methyl-4H-benzo[f][1,2,4]triazolo[4,3-a][1,4]diazepin-4-yl)acetamido)ethyl)amino)-3-oxoprop-1-en-1-yl)phenyl)boronic acid] was tested, and the pIC50 (BRD2; [1]) was 6.00 to 7.30, the pIC50 (BRD3; [2]) was 6.00 to 7.30 and the pIC50 (BRD4; [3]) was 6.00 to 7.30.

`COc1ccc2c(c1)C(c1ccc(Cl)cc1)=N[C@@H](CC(=O)NCCNC(=O)c1cccc(-c3cccc(B(O)O)c3)c1)c1nnc(C)n1-2` [BRD-E-31, (3′-((2-(2-((4S)-6-(4-chlorophenyl)-8-methoxy-1-methyl-4H-benzo[f][1,2,4]triazolo[4,3-a][1,4]diazepin-4-yl)acetamido)ethyl)carbamoyl)-[1,1′-biphenyl]-3-yl)boronic acid] showed a pIC50 (BRD2; [1]) of 6.00 to 7.30, a pIC50 (BRD3; [2]) of 6.00 to 7.30 and a pIC50 (BRD4; [3]) of 6.00 to 7.30.

With `COc1ccc2c(c1)C(c1ccc(Cl)cc1)=N[C@@H](CC(=O)NCCNC(=O)Cc1cccc(B(O)O)c1)c1nnc(C)n1-2` [BRD-E-38, (3-(2-((2-(2-((4S)-6-(4-chlorophenyl)-8-methoxy-1-methyl-4H-benzo[f][1,2,4]triazolo[4,3-a][1,4]diazepin-4-yl)acetamido)ethyl)amino)-2-oxoethyl)phenyl)boronic acid] the pIC50 (BRD2; [1]) was 6.00 to 7.30, the pIC50 (BRD3; [2]) was 6.00 to 7.30 and the pIC50 (BRD4; [3]) was 6.00 to 7.30.

In the case of `COc1ccc2c(c1)C(c1ccc(Cl)cc1)=N[C@@H](CC(=O)NCCNC(=O)c1ccc(O)c(O)c1)c1nnc(C)n1-2` [BRD-N-01, N-(2-(2-((4S)-6-(4-chlorophenyl)-8-methoxy-1-methyl-4H-benzo[f][1,2,4]triazolo[4,3-a][1,4]diazepin-4-yl)acetamido)ethyl)-3,4-dihydroxybenzamide], the pIC50 (BRD2; [4]) was 6.00 to 7.30, the pIC50 (BRD3; [5]) was 6.00 to 7.30 and the pIC50 (BRD4; [6]) was 6.00 to 7.30.

`COc1ccc2c(c1)C(c1ccc(Cl)cc1)=N[C@@H](CC(=O)NCCNC(=O)c1cccc(O)c1O)c1nnc(C)n1-2` [BRD-N-02, N-(2-(2-((4S)-6-(4-chlorophenyl)-8-methoxy-1-methyl-4H-benzo[f][1,2,4]triazolo[4,3-a][1,4]diazepin-4-yl)acetamido)ethyl)-2,3-dihydroxybenzamide] gave a pIC50 (BRD2; [4]) of 6.00 to 7.30, a pIC50 (BRD3; [5]) of 6.00 to 7.30 and a pIC50 (BRD4; [6]) of 6.00 to 7.30.

For `COc1ccc2c(c1)C(c1ccc(Cl)cc1)=N[C@@H](CC(=O)NCCCNC(=O)c1ccc(O)c(O)c1)c1nnc(C)n1-2` [BRD-N-03, N-(3-(2-((4S)-6-(4-chlorophenyl)-8-methoxy-1-methyl-4H-benzo[f][1,2,4]triazolo[4,3-a][1,4]diazepin-4-yl)acetamido)propyl)-3,4-dihydroxybenzamide], the pIC50 (BRD2; [4]) was 6.00 to 7.30, the pIC50 (BRD3; [5]) was 6.00 to 7.30 and the pIC50 (BRD4; [6]) was 6.00 to 7.30.

Work on `COc1ccc2c(c1)C(c1ccc(Cl)cc1)=N[C@@H](CC(=O)NCCCNC(=O)c1cccc(O)c1O)c1nnc(C)n1-2` [BRD-N-04, N-(3-(2-((4S)-6-(4-chlorophenyl)-8-methoxy-1-methyl-4H-benzo[f][1,2,4]triazolo[4,3-a][1,4]diazepin-4-yl)acetamido)propyl)-2,3-dihydroxybenzamide] yielded a pIC50 (BRD2) of 6.00 to 7.30, a pIC50 (BRD3) of 6.00 to 7.30 and a pIC50 (BRD4) of 6.00 to 7.30.

Compound `COc1ccc2c(c1)C(c1ccc(Cl)cc1)=N[C@@H](CC(=O)NCCCCNC(=O)c1ccc(O)c(O)c1)c1nnc(C)n1-2` [BRD-N-05, N-(4-(2-((4S)-6-(4-chlorophenyl)-8-methoxy-1-methyl-4H-benzo[f][1,2,4]triazolo[4,3-a][1,4]diazepin-4-yl)acetamido)butyl)-3,4-dihydroxybenzamide] has a pIC50 (BRD2) of 6.00 to 7.30, a pIC50 (BRD3) of 6.00 to 7.30 and a pIC50 (BRD4) of 6.00 to 7.30.
